{
  "source": "paper PMC6934184",
  "about": "“Selective DNA-PKcs inhibition extends the therapeutic index of localized radiotherapy and chemotherapy” (The Journal of Clinical Investigation, 2019)",
  "target": "T1, STK38 (NDR) (Homo sapiens, UniProt Q15208)",
  "T1 construct": "purchased Thermo Fisher Scientific (Life Technologies) SelectScreen",
  "T1 sequence (Q15208 whole entry)": "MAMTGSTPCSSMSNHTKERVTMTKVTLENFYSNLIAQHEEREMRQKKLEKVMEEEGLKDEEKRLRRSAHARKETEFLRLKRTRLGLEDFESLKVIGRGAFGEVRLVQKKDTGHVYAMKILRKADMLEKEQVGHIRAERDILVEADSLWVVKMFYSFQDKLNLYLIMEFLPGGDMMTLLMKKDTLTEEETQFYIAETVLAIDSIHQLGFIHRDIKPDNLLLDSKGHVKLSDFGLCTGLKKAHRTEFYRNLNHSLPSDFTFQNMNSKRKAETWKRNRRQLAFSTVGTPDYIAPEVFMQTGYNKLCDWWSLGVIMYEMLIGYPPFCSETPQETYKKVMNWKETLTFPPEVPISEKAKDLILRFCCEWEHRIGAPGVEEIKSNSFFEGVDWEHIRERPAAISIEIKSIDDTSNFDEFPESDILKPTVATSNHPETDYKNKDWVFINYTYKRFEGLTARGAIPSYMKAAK",
  "experiment": "SelectScreen LanthaScreen",
  "type": "binding",
  "conditions": "read-out: % displacement",
  "how_it_was_run": "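NU5455 was profiled across the SelectScreen Broad panel of kinase activity and binding assays. Z'LYTE reactions such as CSF1R ran at apparent Km ATP, while the Adapta CAMK1 assay used ATP listed as 10. Values are given as percent.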",
  "data": [
    {"smiles": "CN(C(=O)CN1CCOCC1)c1ccc2sc3c(-c4cccc5c(=O)cc(N6CC7CCC(C6)O7)oc45)cccc3c2c1", "note": "[NU5455]", "values": [
      {"measurement": "inhibition at 1 µM", "value": -5.9, "unit": "%"}
    ]}
  ]
}
